#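 Five concentrations, 48 hours, 96-well plates. Here, GI50 denotes the concentration required for 50% inhibition of growth.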 The source made the active and inactive calls. Cut-off read from the data, not from the text of the source: active = GI50 up to about 1.1 µM and inactive = higher.
# Legend:
# Assay in all cases: inhibition of tumour cell growth, NCI panel, 48 h
# SN12C = test system: SN12C
# SK-OV-3 = test system: SK-OV-3
# UO-31 = test system: UO-31
# Malme-3M = test system: Malme-3M
# NCI/ADR-RES = test system: NCI/ADR-RES
# SF-268 = test system: SF-268
# CAKI-1 = test system: CAKI-1
# SF-539 = test system: SF-539
# SK-MEL-28 = test system: SK-MEL-28
# M14 = test system: M14
# SW-620 = test system: SW-620
# OVCAR-5 = test system: OVCAR-5
# NCI-H23 = test system: NCI-H23
# NCI-H522 = test system: NCI-H522
# OVCAR-8 = test system: OVCAR-8
# MDA-MB-435 = test system: MDA-MB-435
# UACC-257 = test system: UACC-257
# HCT-15 = test system: HCT-15
# Hs-578T = test system: Hs-578T
# HOP-62 = test system: HOP-62
# A498 = test system: A498
# A549 = test system: A549
# CCRF-CEM = test system: CCRF-CEM
# MCF7 = test system: MCF7
# HCC 2998 = test system: HCC 2998
# T47D = test system: T47D
# OVCAR-4 = test system: OVCAR-4
# U-251 = test system: U-251
# NCI-H226 = test system: NCI-H226
# 786-0 = test system: 786-0
# HT-29 = test system: HT-29
# UACC-62 = test system: UACC-62
# TK-10 = test system: TK-10
# SR = test system: SR
# MDA-MB-231 = test system: MDA-MB-231
# DU-145 = test system: DU-145
# IGROV-1 = test system: IGROV-1
# NCI-H460 = test system: NCI-H460
# RXF 393 = test system: RXF 393
# BT-549 = test system: BT-549
# PC-3 = test system: PC-3
# ACHN = test system: ACHN
# KM12 = test system: KM12
# HCT-116 = test system: HCT-116
# HOP-92 = test system: HOP-92
# SK-MEL-2 = test system: SK-MEL-2
# COLO 205 = test system: COLO 205
# SF-295 = test system: SF-295
# MDA-N = test system: MDA-N
# OVCAR-3 = test system: OVCAR-3
# MOLT-4 = test system: MOLT-4
# LOX IMVI = test system: LOX IMVI
# HL-60 = test system: HL-60
# K562 = test system: K562
# RPMI-8226 = test system: RPMI-8226
# SNB-19 = test system: SNB-19
# EKVX = test system: EKVX
# SK-MEL-5 = test system: SK-MEL-5
# SNB-75 = test system: SNB-75
compound,measurement,setting,value
N#Cc1nc(CSCc2ccccc2)oc1N,GI50,SN12C,> 100 µM (inactive)
same,GI50,SK-OV-3,> 100 µM (inactive)
same,GI50,UO-31,> 100 µM (inactive)
same,GI50,Malme-3M,1.35 µM (inactive)
same,GI50,NCI/ADR-RES,> 100 µM (inactive)
same,GI50,SF-268,> 100 µM (inactive)
same,GI50,CAKI-1,> 100 µM (inactive)
same,GI50,SF-539,> 100 µM (inactive)
same,GI50,SK-MEL-28,> 100 µM (inactive)
same,GI50,M14,> 100 µM (inactive)
same,GI50,SW-620,> 100 µM (inactive)
same,GI50,OVCAR-5,> 100 µM (inactive)
same,GI50,NCI-H23,> 100 µM (inactive)
same,GI50,NCI-H522,42.6 µM (inactive)
same,GI50,OVCAR-8,> 100 µM (inactive)
same,GI50,MDA-MB-435,> 100 µM (inactive)
same,GI50,UACC-257,> 100 µM (inactive)
same,GI50,HCT-15,> 100 µM
same,GI50,Hs-578T,> 100 µM (inactive)
same,GI50,HOP-62,> 100 µM (inactive)
same,GI50,A498,> 100 µM (inactive)
same,GI50,A549,> 100 µM (inactive)
same,GI50,CCRF-CEM,19.8 µM (inactive)
same,GI50,MCF7,> 100 µM (inactive)
same,GI50,HCC 2998,> 100 µM (inactive)
same,GI50,T47D,> 100 µM (inactive)
same,GI50,OVCAR-4,> 100 µM (inactive)
same,GI50,U-251,> 100 µM (inactive)
same,GI50,NCI-H226,> 100 µM (inactive)
same,GI50,786-0,> 100 µM (inactive)
same,GI50,HT-29,> 100 µM (inactive)
same,GI50,UACC-62,> 100 µM (inactive)
same,GI50,TK-10,> 100 µM (inactive)
same,GI50,SR,> 100 µM (inactive)
same,GI50,MDA-MB-231,> 100 µM (inactive)
same,GI50,DU-145,> 100 µM (inactive)
same,GI50,IGROV-1,> 100 µM (inactive)
same,GI50,NCI-H460,> 100 µM (inactive)
same,GI50,RXF 393,> 100 µM (inactive)
same,GI50,BT-549,> 100 µM (inactive)
same,GI50,PC-3,> 100 µM (inactive)
same,GI50,ACHN,> 100 µM (inactive)
same,GI50,KM12,> 100 µM (inactive)
same,GI50,HCT-116,> 100 µM (inactive)
same,GI50,HOP-92,> 100 µM (inactive)
same,GI50,SK-MEL-2,> 100 µM (inactive)
same,GI50,COLO 205,> 100 µM (inactive)
same,GI50,SF-295,> 100 µM (inactive)
same,GI50,MDA-N,> 100 µM (inactive)
same,GI50,OVCAR-3,> 100 µM (inactive)
same,GI50,MOLT-4,> 100 µM (inactive)
CN1C(=O)C23CCCC2CC1(c1ccccc1)S3 (centres undefined),GI50,SN12C,> 100 µM (inactive)
same,GI50,LOX IMVI,> 100 µM (inactive)
same,GI50,SK-OV-3,> 100 µM (inactive)
same,GI50,UO-31,> 100 µM (inactive)
same,GI50,Malme-3M,> 100 µM (inactive)
same,GI50,NCI/ADR-RES,64.9 µM (inactive)
same,GI50,SF-268,> 100 µM (inactive)
same,GI50,CAKI-1,> 100 µM (inactive)
same,GI50,SF-539,> 100 µM (inactive)
same,GI50,SK-MEL-28,> 100 µM (inactive)
same,GI50,M14,> 100 µM (inactive)
same,GI50,SW-620,> 100 µM (inactive)
same,GI50,OVCAR-5,> 100 µM (inactive)
same,GI50,NCI-H23,> 100 µM (inactive)
same,GI50,NCI-H522,91.2 µM (inactive)
same,GI50,OVCAR-8,> 100 µM (inactive)
same,GI50,MDA-MB-435,> 100 µM (inactive)
same,GI50,UACC-257,23 µM (inactive)
same,GI50,HCT-15,> 100 µM
same,GI50,Hs-578T,78.9 µM (inactive)
same,GI50,HOP-62,> 100 µM (inactive)
same,GI50,A498,> 100 µM (inactive)
same,GI50,A549,> 100 µM (inactive)
same,GI50,MCF7,> 100 µM (inactive)
same,GI50,T47D,54.6 µM (inactive)
same,GI50,OVCAR-4,56.1 µM (inactive)
same,GI50,U-251,> 100 µM (inactive)
same,GI50,NCI-H226,> 100 µM (inactive)
same,GI50,786-0,> 100 µM (inactive)
same,GI50,HL-60,60.7 µM (inactive)
same,GI50,HT-29,> 100 µM (inactive)
same,GI50,UACC-62,> 100 µM (inactive)
same,GI50,TK-10,> 100 µM (inactive)
same,GI50,SR,> 100 µM (inactive)
same,GI50,MDA-MB-231,90.4 µM (inactive)
same,GI50,DU-145,> 100 µM (inactive)
same,GI50,K562,> 100 µM (inactive)
same,GI50,RPMI-8226,> 100 µM (inactive)
same,GI50,IGROV-1,> 100 µM (inactive)
same,GI50,RXF 393,> 100 µM (inactive)
same,GI50,BT-549,95.5 µM (inactive)
same,GI50,PC-3,45.2 µM (inactive)
same,GI50,ACHN,> 100 µM (inactive)
same,GI50,KM12,> 100 µM (inactive)
same,GI50,HCT-116,> 100 µM (inactive)
same,GI50,HOP-92,41 µM (inactive)
same,GI50,SK-MEL-2,49.7 µM (inactive)
same,GI50,SNB-19,> 100 µM (inactive)
same,GI50,COLO 205,> 100 µM (inactive)
same,GI50,SF-295,> 100 µM (inactive)
same,GI50,MDA-N,> 100 µM (inactive)
same,GI50,EKVX,> 100 µM (inactive)
same,GI50,SK-MEL-5,> 100 µM (inactive)
same,GI50,OVCAR-3,> 100 µM (inactive)
same,GI50,MOLT-4,> 100 µM (inactive)
c1ccc2c(c1)CCN2CCc1c[nH]c2ccccc12,GI50,SN12C,> 10 µM (inactive)
same,GI50,LOX IMVI,> 10 µM (inactive)
same,GI50,SK-OV-3,> 10 µM (inactive)
same,GI50,UO-31,> 10 µM (inactive)
same,GI50,Malme-3M,> 10 µM (inactive)
same,GI50,NCI/ADR-RES,> 10 µM (inactive)
same,GI50,SF-268,> 10 µM (inactive)
same,GI50,CAKI-1,> 10 µM (inactive)
same,GI50,SF-539,> 10 µM (inactive)
same,GI50,SK-MEL-28,> 10 µM (inactive)
same,GI50,M14,> 10 µM (inactive)
same,GI50,SW-620,> 10 µM (inactive)
same,GI50,OVCAR-5,> 10 µM (inactive)
same,GI50,NCI-H23,> 10 µM (inactive)
same,GI50,NCI-H522,> 10 µM (inactive)
same,GI50,OVCAR-8,> 10 µM (inactive)
same,GI50,MDA-MB-435,> 10 µM (inactive)
same,GI50,UACC-257,> 10 µM (inactive)
same,GI50,HCT-15,> 10 µM
same,GI50,Hs-578T,> 10 µM (inactive)
same,GI50,HOP-62,> 10 µM (inactive)
same,GI50,A549,> 10 µM (inactive)
same,GI50,CCRF-CEM,> 10 µM (inactive)
same,GI50,MCF7,> 10 µM (inactive)
same,GI50,HCC 2998,> 10 µM (inactive)
same,GI50,SNB-75,> 10 µM (inactive)
same,GI50,T47D,> 10 µM (inactive)
same,GI50,OVCAR-4,> 10 µM (inactive)
same,GI50,U-251,> 10 µM (inactive)
same,GI50,NCI-H226,> 10 µM (inactive)
same,GI50,786-0,> 10 µM (inactive)
same,GI50,HL-60,> 10 µM (inactive)
same,GI50,HT-29,> 10 µM (inactive)
same,GI50,UACC-62,> 10 µM (inactive)
same,GI50,TK-10,> 10 µM (inactive)
same,GI50,SR,> 10 µM (inactive)
same,GI50,MDA-MB-231,> 10 µM (inactive)
same,GI50,DU-145,> 10 µM (inactive)
same,GI50,K562,> 10 µM (inactive)
same,GI50,RPMI-8226,> 10 µM (inactive)
same,GI50,IGROV-1,> 10 µM (inactive)
same,GI50,NCI-H460,> 10 µM (inactive)
same,GI50,RXF 393,> 10 µM (inactive)
same,GI50,BT-549,> 10 µM (inactive)
same,GI50,PC-3,> 10 µM (inactive)
same,GI50,ACHN,> 10 µM (inactive)
same,GI50,KM12,> 10 µM (inactive)
same,GI50,HCT-116,> 10 µM (inactive)
same,GI50,HOP-92,> 10 µM (inactive)
same,GI50,SK-MEL-2,> 10 µM (inactive)
same,GI50,SNB-19,> 10 µM (inactive)
same,GI50,COLO 205,> 10 µM (inactive)
same,GI50,SF-295,> 10 µM (inactive)
same,GI50,MDA-N,> 10 µM (inactive)
same,GI50,EKVX,> 10 µM (inactive)
same,GI50,SK-MEL-5,> 10 µM (inactive)
same,GI50,OVCAR-3,> 10 µM (inactive)
same,GI50,MOLT-4,> 10 µM (inactive)
